Tested on: reaction of the MCA produced by hybridoma 11-50 with human colon cancer cell line SW480
Experiment: Inhibition of the reaction of the MCA with immobilized SW480 cells (ELISA)
Type: binding
Conditions: SW480, result in words
Procedure: It was determined by the ELISA. As an antigen, 10 µg/ml asialofetuin (SIGMA) solution in 0.1 M borate buffer (pH 8.6) whose 100 ul was immobilized to each well of the Falcon microtest III plate (96 wells) was used. The supernatant of the hybridoma culture mixture was added to the plate with 50 µl every well and allowed to stand at room temperature for 1 hour. The wells were washed with 1 % bovine serum albumin (abbreviated to BSA hereinafter)-containing Hanks' buffer salt solution (abbreviated to HBSS-B) 3 times, then 100 µl of 0.6 mg/ml p-nitrophenyl phosphate solution in 1 M diethanolamine + 1 mM MgCl2 (pH 9.8) were added. After 30 to 60 minutes, the absorbance at 405 nm wavelength was measured to select the hybridomas with antibody activity.
Fifty microliters of 30-fold diluted culture supernatant of hybridoma 11-50 with HBSS-B and fifty microliters of a variety of protein solutions diluted stepwise with HBSS-B (described in Table 3) were mixed beforehand, then 50 µl of the mixture was added to a -96-well plate to which human colon cancer cell line SW480 had been immobilized with glutaraldehyde, then allowed to stand at room temperature for 1 hour. The following procedures were done according to the method described in Example 1-(3).
Inhibitory activity in % = [1 - (A405 in the presence of an inhibitor)/(A405-in the absence of an inhibitor)]
Various kinds of oligosaccharides (listed in Table 4) were diluted stepwise with HBSS-B and the solutions were used to conduct the evaluation according to the method ,described in Example 4-(1).

SMILES | inhibitory action of oligosaccharides
CC(=O)N[C@H]1[C@H](O[C@H]2[C@@H](O)[C@@H](CO)O[C@@H](O[C@H]3[C@H](O)[C@@H](O)C(O)O[C@@H]3CO)[C@@H]2O)O[C@H](CO)[C@@H](O)[C@@H]1O[C@@H]1O[C@H](CO)[C@H](O)[C@H](O)[C@H]1O (stereo partly drawn) [Lacto-N-tetraose, Galβ1→3GlcNAcβ1→3Galβ1→4Glc] | strongest inhibition

Same assay, conditions: SW480; read-out: IC50 (concentration of oligosaccharides inhibiting the bonding of MCA to the cancer cells by 50%)

SMILES | IC50
O=C[C@H](O)[C@@H](O)[C@H](O[C@@H]1O[C@H](CO)[C@@H](O)[C@H](O)[C@H]1O)[C@H](O)CO [Cellobiose, Galβ1→4Glc] | > 50 mM
OC[C@H]1O[C@@H](O[C@H]2[C@H](O)[C@@H](O)C(O)O[C@@H]2CO)[C@H](O)[C@@H](O)[C@H]1O (stereo partly drawn) [Lactose, Galβ1→4Glc] | 21 mM

Further lines, results first:

IC50 | SMILES
2.8 mM | CO[C@H]1O[C@H](CO)[C@H](O)[C@H](O[C@@H]2O[C@H](CO)[C@H](O)[C@H](O)[C@H]2O)[C@H]1NC(C)=O [Galβ1→3GalNAcα1-OMe]
> 5 mM | CO[C@@H]1O[C@H](CO)[C@@H](O[C@@H]2O[C@H](CO)[C@H](O)[C@H](O)[C@H]2O)[C@H](O)[C@H]1NC(C)=O [Galβ1→4GlcNAcβ1-OMe]
0.68 mM | CC(=O)N[C@H]1[C@H](O[C@H]2[C@@H](O)[C@@H](CO)O[C@@H](O[C@H]3[C@H](O)[C@@H](O)C(O)O[C@@H]3CO)[C@@H]2O)O[C@H](CO)[C@@H](O)[C@@H]1O[C@@H]1O[C@H](CO)[C@H](O)[C@H](O)[C@H]1O (stereo partly drawn) [Lacto-N-tetraose, Galβ1→3GlcNAcβ1→3Galβ1→4Glc]

Reference: patent publication EP0407586A1, “HUMAN MONOCLONAL ANTIBODY AND PROCESS FOR ITS PREPARATION” (TEIJIN LIMITED, priority 1988, dated 1990)
